How the values were obtained:
[1] = Microsomal stability assay, human liver microsomes (HLM); assay type: in vitro ADME; conditions: human liver microsomes 0.5 mg/mL, 1 uM substrate, 2 mM NADPH, 37° C., referenced against time zero control
Procedure: (§1) Microsomal Stability Assay.
(§2) Compounds were incubated at 37° C. and shaken for 30 minutes in a phosphate buffered solution with either rat or human liver microsomes and the cofactor NADPH. A time zero control was similarly prepared, however with NADPH excluded. The final incubation concentrations were 1 uM substrate (0.2% DMSO), 0.5 mg/mL liver microsome, 2 mM NADPH, and 0.1 M phosphate. Reactions were quenched and proteins precipitated with the addition of 2 volume equivalents of ice cold acetonitrile containing an internal standard. Following a centrifugation step, aliquots from the quenched incubations were further diluted with 4 volume equivalents of a 50% aqueous methanol solution and then subjected to LC/MS/MS analysis for quantitation of parent compound. Microsome stability values were calculated as the percent of substrate remaining after 30 minutes referenced against the time zero control.
(§3) Microsomal stability in rat and human liver microsomes were determined for selected compounds of the present invention using the above assay. Table 4 provides the human liver microsomes (“HLM”) and rat liver microsomes (“RLM”) stability data as the percent of compound remaining after 30 minutes referenced against the time zero control.

[2] = Microsomal stability assay, rat liver microsomes (RLM); assay type: in vitro ADME; conditions: rat liver microsomes 0.5 mg/mL, 1 uM substrate, 2 mM NADPH, 37° C., referenced against time zero control
Procedure: as §1, §2, §3

[3] = molecular target: human Nav1.8 (Homo sapiens (Human), UniProt Q9Y5Y9); test: E-VIPR optical membrane potential assay with electrical stimulation; assay type: cell-based; conditions: HEK cells expressing human Nav1.8
Chain of human Nav1.8 (Q9Y5Y9 whole entry): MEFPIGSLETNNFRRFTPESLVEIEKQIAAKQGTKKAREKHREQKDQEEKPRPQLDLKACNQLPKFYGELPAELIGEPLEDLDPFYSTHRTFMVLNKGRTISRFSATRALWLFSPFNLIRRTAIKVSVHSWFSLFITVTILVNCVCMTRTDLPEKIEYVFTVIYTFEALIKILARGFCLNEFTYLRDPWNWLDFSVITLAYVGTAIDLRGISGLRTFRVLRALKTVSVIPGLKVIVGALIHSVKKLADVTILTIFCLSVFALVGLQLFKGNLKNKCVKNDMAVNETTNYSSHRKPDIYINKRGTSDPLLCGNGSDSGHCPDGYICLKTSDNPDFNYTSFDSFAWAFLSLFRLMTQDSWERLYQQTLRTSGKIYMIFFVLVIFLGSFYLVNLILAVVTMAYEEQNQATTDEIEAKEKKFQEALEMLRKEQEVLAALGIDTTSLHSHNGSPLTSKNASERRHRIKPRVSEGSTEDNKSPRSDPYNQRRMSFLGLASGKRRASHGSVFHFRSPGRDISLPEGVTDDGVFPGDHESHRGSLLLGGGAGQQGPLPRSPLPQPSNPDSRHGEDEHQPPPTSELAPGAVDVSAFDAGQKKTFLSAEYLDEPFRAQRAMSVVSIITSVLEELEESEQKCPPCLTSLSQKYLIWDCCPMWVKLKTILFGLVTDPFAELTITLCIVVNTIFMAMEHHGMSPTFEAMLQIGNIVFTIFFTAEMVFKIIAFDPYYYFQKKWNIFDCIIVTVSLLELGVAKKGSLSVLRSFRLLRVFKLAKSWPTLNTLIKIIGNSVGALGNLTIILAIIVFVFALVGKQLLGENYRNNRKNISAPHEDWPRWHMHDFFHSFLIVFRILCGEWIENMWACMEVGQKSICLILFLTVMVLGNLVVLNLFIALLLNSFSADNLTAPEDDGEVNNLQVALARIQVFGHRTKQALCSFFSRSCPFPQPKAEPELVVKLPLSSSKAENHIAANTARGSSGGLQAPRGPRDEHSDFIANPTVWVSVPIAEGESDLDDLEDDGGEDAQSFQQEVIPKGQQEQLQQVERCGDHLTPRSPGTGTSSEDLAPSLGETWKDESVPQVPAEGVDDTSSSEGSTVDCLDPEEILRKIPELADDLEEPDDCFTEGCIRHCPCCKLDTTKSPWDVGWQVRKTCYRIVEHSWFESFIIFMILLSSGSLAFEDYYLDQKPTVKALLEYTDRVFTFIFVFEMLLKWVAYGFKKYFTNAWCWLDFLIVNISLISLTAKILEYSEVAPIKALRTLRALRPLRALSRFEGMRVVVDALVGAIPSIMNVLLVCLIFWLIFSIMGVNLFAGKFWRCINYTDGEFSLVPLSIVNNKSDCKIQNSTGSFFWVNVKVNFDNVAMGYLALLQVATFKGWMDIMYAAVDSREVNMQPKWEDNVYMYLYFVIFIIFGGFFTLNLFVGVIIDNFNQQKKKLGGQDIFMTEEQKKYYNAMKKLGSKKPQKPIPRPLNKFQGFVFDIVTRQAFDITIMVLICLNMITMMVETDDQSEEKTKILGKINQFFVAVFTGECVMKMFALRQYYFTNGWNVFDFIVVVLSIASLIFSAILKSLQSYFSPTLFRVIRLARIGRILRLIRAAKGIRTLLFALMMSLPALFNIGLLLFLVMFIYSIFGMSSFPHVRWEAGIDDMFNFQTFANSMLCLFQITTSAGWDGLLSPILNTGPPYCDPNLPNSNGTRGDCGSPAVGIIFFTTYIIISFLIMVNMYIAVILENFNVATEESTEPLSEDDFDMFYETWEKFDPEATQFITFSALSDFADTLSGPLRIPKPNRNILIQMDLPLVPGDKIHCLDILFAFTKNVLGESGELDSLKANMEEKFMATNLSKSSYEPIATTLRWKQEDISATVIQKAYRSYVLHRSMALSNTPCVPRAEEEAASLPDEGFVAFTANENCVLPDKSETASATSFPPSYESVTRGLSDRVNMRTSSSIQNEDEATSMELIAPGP

HLM (% remaining @ 30 minutes) [1] | RLM (% remaining @ 30 minutes) [2] | IC50 [3] | SMILES
76% | 78% | 11 nM | COc1cc(F)ccc1Oc1ccc(C(F)(F)F)cc1C(=O)Nc1cc[nH]c(=O)c1 [Compound 30, 2-(4-fluoro-2-methoxyphenoxy)-N-(2-oxo-1,2-dihydropyridin-4-yl)-5-(trifluoromethyl)benzamide]
87% | 79% | 150 nM | O=C(Nc1cc[nH]c(=O)c1)c1ccc(C(F)(F)F)cc1OCC1CCCC1 [Compound 120, 2-(cyclopentylmethoxy)-N-(2-oxo-1,2-dihydropyridin-4-yl)-4-(trifluoromethyl)benzamide]
97% | 89% | 120 nM | O=C(Nc1cc[nH]c(=O)c1)c1cc(F)ccc1Oc1ccc(OC(F)(F)F)cc1 [Compound 101, 5-fluoro-N-(2-oxo-1,2-dihydropyridin-4-yl)-2-(4-(trifluoromethoxy)phenoxy)benzamide]
100% | 106% | 37 nM | O=C(Nc1cc[nH]c(=O)c1)c1cc(Cl)ccc1Oc1ccc(F)cc1Cl [Compound 66, 5-chloro-2-(2-chloro-4-fluorophenoxy)-N-(2-oxo-1,2-dihydropyridin-4-yl)benzamide]
90% | 95% | 51 nM | O=C(Nc1cc[nH]c(=O)c1)c1cc(C(F)(F)F)ccc1Oc1ccccc1OC(F)(F)F [Compound 75, N-(2-oxo-1,2-dihydropyridin-4-yl)-2-(2-(trifluoromethoxy)phenoxy)-5-(trifluoromethyl)benzamide]
93% | 84% | 20 nM | CCOc1ccc(Oc2ccc(C(F)(F)F)cc2C(=O)Nc2cc[nH]c(=O)c2)cc1 [Compound 44, 2-(4-ethoxyphenoxy)-N-(2-oxo-1,2-dihydropyridin-4-yl)-5-(trifluoromethyl)benzamide]
104% | 88% | 30 nM | Cc1cc(F)ccc1Oc1cc(Cl)ccc1C(=O)Nc1cc[nH]c(=O)c1 [Compound 20, 4-chloro-2-(4-fluoro-2-methylphenoxy)-N-(2-oxo-1,2-dihydropyridin-4-yl)benzamide]
103% | 100% | 11 nM | O=C(Nc1cc[nH]c(=O)c1)c1ccc(C(F)(F)F)cc1Oc1ccc(OC(F)(F)F)cc1 [Compound 79, N-(2-oxo-1,2-dihydropyridin-4-yl)-2-(4-(trifluoromethoxy)phenoxy)-4-(trifluoromethyl)benzamide]

Source: patent US9051270B2, “Pyridone amides as modulators of sodium channels” (Vertex Pharmaceuticals Incorporated, priority 2013, dated 2015)
